In PubChem BioAssay AID179 (DTP/NCI, 2004) one finds EC50, IC50 and outcome data, which are given here for 54 compounds.

Each structure is given as a SMILES string. Active and inactive are the calls of the source.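 Rule for the calls: active = compounds giving half or more protection of infected cells from virus-caused growth loss, again on retest; inactive = the rest.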 Where a SMILES comes first, the peptide text is derived from it. The star is where a group is joined. Boc = CC(C)(C)OC(=O)*

The assay relates to CEM cells HIV-1 protection, formazan growth assay. Kind of assay: NCI AIDS Antiviral Assay. To be noted: for IC50: measured here: growth of uninfected CEM cells. An outline of the steps:
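Steps: treat uninfected and HIV-1-infected human CEM cells at five drug levels; quantify growth by soluble formazan; retest any compound reaching 50% protection; classify actives from the retest.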

For `O=C(O)c1cccc2cccc(-c3c4ccc(=O)cc-4oc4cc(O)ccc34)c12`, the 50% effective concentration (EC50) (as a rule, the concentration at which the effect is half-maximal) came to 14.1 µM and the IC50 (commonly the midpoint of a concentration-inhibition curve) turned out to be 123 µM. In the same order, the values of `CC(NC(C)(C)C)C(=O)c1cccc(Cl)c1` (stereo not drawn) are > 200 µM and > 200 µM.

For the compound `COc1cc(/C=C/C=C2\CC/C(=C\C=C\c3ccc(O)c(OC)c3)C2=O)ccc1O`, the EC50 was > 200 µM and the IC50 was found to be 13.2 µM. With `C[N+]1(C)CCCC(C#N)(c2ccccc2)CC1` (stereo not drawn), the EC50 was > 813 µM.

In the case of `O=C(O)C1(C(=O)O)CCC1.[NH2-].[NH2-].[Pt+2]`, the EC50 was > 339 µM and the half-inhibitory concentration (IC50) was found to be 7.94 µM. Regarding `CC(=O)N/C(=C\c1cccc([N+](=O)[O-])c1)c1nc2c3c(ccc2[nH]1)C(=O)c1ccccc1C3=O`, the result was inactive. In the case of `COC(=O)c1cc(C)ccc1/C=C1\Cc2cc(C)c(C)cc2C1=O`, the EC50 was > 100 µM and the IC50 is > 100 µM. Consider `O=C(Nc1ccc(Cl)cc1)P(=O)(O)c1ccccc1`, for which the EC50 is > 200 µM and the half-inhibitory concentration (IC50) is > 200 µM. `COc1ccc(C2OC(N)=C(C#N)C3=C2C(C)CCC3)cc1OC` (stereo not drawn): the half-maximal effective concentration (EC50) is 501 µM and the IC50 was found to be 631 µM. In the case of `C#CC1OC(C)(C)OC1C1OC(C)(C)OCC1O` (stereo not drawn), the outcome was inactive.

As to `O=P1(NC2CCCC2)OCC2(CO1)COP(=O)(NC1CCCC1)OC2` (stereo not drawn), the EC50 was > 200 µM and the concentration for half-maximal inhibition (IC50) was > 200 µM. As for `O=C(O)CN1C(=O)CN=C(c2ccccn2)c2cc(Cl)ccc21`, the EC50 is > 759 µM and the IC50 is > 759 µM. Regarding `CC(=O)O[C@H]1CC[C@@]2(C)C(=CC[C@@H]3C2CC[C@]2(C)Nc4nc5ccccc5cc4CC32)C1` (stereo partly drawn), the result was inactive.

For the compound `CN(c1ccccc1)c1nc(=[N+]2CCCC2)ss1`, the outcome was inactive. On to `O=[N+]([O-])/C(C(Cl)=C(Cl)Cl)=C(/Nc1ccccc1)SCc1ccccc1`, for which the EC50 is > 200 µM and the IC50 was 38 µM. Turning to `N#CSCc1ccc(Cl)cc1`, the EC50 is > 28.2 µM and the IC50 turned out to be 16.2 µM. On the same counts, the results for `Cc1cc(=O)c2c(O)cc3c(c2o1)CC=C(COC1OC(COC2OC(CO)C(O)C(O)C2O)C(O)C(O)C1O)CO3` (stereo not drawn) are > 417 µM and > 417 µM. In the same order, the values of `O=C1C(=c2ccc(=C3C(=O)c4ccc([N+](=O)[O-])cc4[N+]3=O)cc2)N([O-])c2cc([N+](=O)[O-])ccc21` are > 11.5 µM and > 11.5 µM. In the case of `NCCCN(CCCCN(CCCN)C(=O)OCc1ccccc1)C(=O)OCc1ccccc1`, the outcome was inactive. For `O=C1N[C@@H](Cc2ccccc2)C(=O)N2CSC[C@H]12`, the EC50 was > 631 µM and the half-maximal inhibitory concentration (IC50) was > 631 µM. On to `COC(OC)[C@@H](C)[C@H](O)[C@](C)(O)C1OC(C)(C)OC(C(C)C=C(C)C)C1C` (stereo partly drawn), for which the result was inactive. For the compound `CCCCCCCCCCCCSS(=O)(=O)c1ccc(C)cc1`, the EC50 is > 20.4 µM and the IC50 is 13.8 µM.

For `CN(C)N1C(=O)CC2(CCN(CCCC(=O)c3ccc(F)cc3)CC2)C1=O`, the EC50 was > 200 µM and the half-inhibitory concentration (IC50) was > 200 µM.

For `CC(=O)NC1C(OCc2ccccc2)OC(COC(=O)CCCCCCCCCCNc2ccc([N+](=O)[O-])c3[nH]c4ccccc4c(=O)c23)C(O)C1OC(C)C(=O)NC(C)C(=O)NC(CCC(N)=O)C(=O)OCc1ccccc1` (stereo not drawn), the EC50 is > 166 µM and the IC50 was > 166 µM.

With `Fc1ccccc1C1CC(C(c2ccccc2)c2ccccc2)=Nc2ccccc2S1` (stereo not drawn), the EC50 was > 6.46 µM and the IC50 was > 6.46 µM. Turning to `Cn1c2c(c3ccccc31)C(=O)CC2(C)C`, the EC50 was > 123 µM and the IC50 is 66.1 µM. In the same order, the values of `CC1CC(C)S(=O)CS1` (stereo not drawn) are > 759 µM and > 759 µM. In the same order, the values of `O=c1oc2ccccc2c(O)c1[N+](=O)[O-]` are > 200 µM and > 200 µM. On the same counts, the results for `COC(=O)c1ccccc1NC(=O)C(=O)NNC(=O)c1ccncc1` are > 275 µM and > 275 µM. Regarding `COC1(OC)c2no[n+]([O-])c2CCC1O` (stereo not drawn), the EC50 was > 200 µM and the IC50 was > 200 µM.

As for `O=C1c2ccccc2C2NCCCN12` (stereo not drawn), the outcome was inactive.

On to `CCOP(=O)(OCC)/C(C#N)=C/c1cc(OC)ccc1OC`, for which the EC50 was > 398 µM and the IC50 turned out to be 24 µM. Consider `COc1cc(/C=C2\C(=O)N(c3ccc(NC(C)=O)cc3)C(c3ccccc3)S2(=O)=O)cc(OC)c1OC` (stereo not drawn), for which the EC50 was > 200 µM and the half-inhibitory concentration (IC50) stood at 87.1 µM. On the same counts, the results for `O=C(CCCC[n+]1ccccc1)Sc1ccccc1C(=O)Nc1ccc(S(=O)(=O)Nc2nccs2)cc1` are 13.5 µM and 91.2 µM. `Cc1c(Cl)c(=O)oc2cc(O)ccc12`: the EC50 was > 324 µM and the IC50 amounted to 174 µM. As for `COc1ccc(SSc2ccc(OC)cc2C(=O)O)c(C(=O)O)c1`, the EC50 is > 200 µM and the IC50 is > 200 µM. As for `NCC(NC(=O)OCc1ccccc1)C(=O)O` (stereo not drawn), the EC50 was > 105 µM and the IC50 was > 105 µM. Consider `CN1C/C(=C\c2cccs2)C(O)/C(=C/c2cccs2)C1` (stereo not drawn), for which the EC50 is > 200 µM and the IC50 is 115 µM. In the same order, the values of `Clc1ccc2c(c1)-c1c3c(nn1-c1ccccc1)-c1ccccc1SC3O2` (stereo not drawn) are > 13.5 µM and > 13.5 µM. Consider `O=S1(=O)C(c2cccc(F)c2)=C(O)c2cc3ccccc3nc21`, for which the result was inactive. Turning to `CCOC(=O)c1c(C)c(=O)cnc2c(C#N)cnn12`, the EC50 was > 115 µM and the 50% inhibitory concentration (IC50) is > 115 µM. As to `CCOC(=O)NC(NCC(O)c1ccccc1)(C(F)(F)F)C(F)(F)F` (stereo not drawn), the EC50 was > 200 µM and the concentration for half-maximal inhibition (IC50) is 174 µM. As for `CC(NC(=O)C(NC(=O)OC(C)(C)C)C(C)C)C(=O)NCC(=O)O` (stereo not drawn) (Boc-Val-Ala-Gly-OH; configuration not given here), the EC50 was > 200 µM and the IC50 was > 200 µM. For the compound `CN1N(c2ccccc2)C(=O)C2=NC=C(C#N)C(=N)C21C` (stereo not drawn), the EC50 is > 200 µM and the IC50 came to 64.6 µM. On the same counts, the results for `Cn1c(=O)c2c([nH]c(=O)n2C)n(C)c1=O` are > 200 µM and > 200 µM. Regarding `N#C/C(=C\N1CC(=O)NC1=S)C(=O)c1ccc2ccccc2c1`, the EC50 is > 200 µM and the IC50 amounted to 158 µM.

Regarding `CCOC(=O)c1cc(C(=O)OCC)c2ccccn2c1=O`, the EC50 is > 100 µM and the half-inhibitory concentration (IC50) came to 43.7 µM. Regarding `CCc1ccc(C2=C(O)C(=O)C(c3ccccc3)=C(O)C2=O)cc1`, the EC50 was > 87.1 µM and the IC50 came out at 44.7 µM. On the same counts, the results for `ClC1=NSSC1(Cl)Cl` are > 200 µM and 27.5 µM. Consider `COc1ccccc1/C=C/c1ccc2ccccc2n1`, for which the EC50 is > 200 µM and the IC50 worked out at 38 µM. In the same order, the values of `FC(F)(F)c1cccc(N2NC(=S)N3C=CC=CC32)c1` (stereo not drawn) are > 83.2 µM and > 83.2 µM. `OC1CC(O)O[C@H](c2ccccc2)C1` (stereo partly drawn): the outcome was inactive. With `CN(C)c1ccc(/C=C(/C(=O)c2ccccc2)c2ccccc2)cc1`, the EC50 was > 15.8 µM and the half-inhibitory concentration (IC50) was > 15.8 µM. As to `NC1=NN(c2ccccc2)C(=O)C1C(=O)C(=O)NC1C2CC3CC(C2)CC1C3` (stereo not drawn), the EC50 is > 13.8 µM and the IC50 was > 13.8 µM.
